Results: patent US7473688B2, “Indolobenzazepine HCV NS5B inhibitors” (Bristol-Myers Squibb Company, priority 2005, dated 2009)
Where two headings read alike, the source gives them in different places.

Key:
HCV replicon = HCV replicon FRET assay; format: cell-based; details: Hepatitis C virus
From the text: FRET Assay Preparation. To perform the HCV FRET screening assay, 96-well cell culture plates were used. The FRET peptide (Anaspec, Inc.) (Taliani et al., Anal. Biochem. 1996, 240, 60-67) contains a fluorescence donor, EDANS, near one end of the peptide and an acceptor, DABCYL, near the other end. The fluorescence of the peptide is quenched by […] resonance energy transfer (RET) between the donor and the acceptor, but as the NS3 protease cleaves the peptide the products are released from RET quenching and the fluorescence of the donor becomes apparent. The assay reagent was made as follows: 5× cell Luciferase cell culture lysis reagent from Promega (#E153A) diluted to 1× with dH2O, NaCl added to 150 mM final, the FRET peptide diluted to 20 uM final from a 2 mM stock.
To prepare plates, HCV replicon cells, with or without a Renilla luciferase reporter gene, were trypsinized and placed into each well of a 96-well plate with titrated test compounds added in columns 3 through 12; columns 1 and 2 contained a control compound (HCV protease inhibitor), and the bottom row contained cells without compound. The plates were then placed in a CO2 incubator at 37° C.
Assays. Subsequent to addition of the test compounds described above (FRET Assay Preparation), at various times the plate was removed and Alamar blue solution (Trek Diagnostics, #00-100) was added per well as a measure of cellular toxicity. After reading in a Cytoflour 4000 instrument (PE Biosystems), plates were rinsed with PBS and then used for FRET assay by the addition of 30 ul of the FRET peptide assay reagent described above (FRET Assay Preparation) per well. The plate was then placed into the Cytoflour 4000 instrument which had been set to 340 excite/490 emission, automatic mode for 20 cycles and the plate read in a kinetic mode. Typically, the signal to noise using an endpoint analysis after the reads was at least three-fold. Alternatively, after Alamar blue reading, plates were rinsed with PBS, 50 ul of DMEM (high glucose) without phenol red was added and plates were then used for luciferase assay using the Promega Dual-Glo Luciferase Assay System.
Compound analysis was determined by quantification of the relative HCV replicon inhibition and the relative cytotoxicity values. To calculate cytoxicity values, the average Alamar Blue fluorescence signals from the control wells were set as 100% non-toxic. The individual signals in each of the compound test wells were then divided by the average control signal and multiplied by 100% to determine […]. To calculate the HCV replicon inhibition values, an average background value was obtained from the two wells containing the highest amount of HCV protease inhibitor at the end of the assay period. These numbers were similar to those obtained from naïve Huh-7 cells.
The background numbers were then subtracted from the average signal obtained from the control wells and this number was used as 100% activity. The individual signals in each of the compound test wells were then divided by the averaged control values after background subtraction and multiplied by 100% to determine percent activity. EC50 values for a protease inhibitor titration were calculated as the concentration which caused a 50% reduction in FRET or luciferase activity. The two numbers generated for the compound plate, percent cytoxicity and percent activity were used to determine compounds of interest for further analysis.

HCV NS5B = target: T1, HCV NS5B (Hepatitis C virus genotype 1b, UniProt Q9WMX2); assay: HCV NS5B RdRp enzyme assay (preincubation protocol); format: biochemical
T1 construct: The protein was expressed with an 18 amino acid C-terminal truncation to enhance the solubility; made in house; host or cells: E. coli BL21 (DE3), pET21a
T1 sequence (Q9WMX2 2420-2992): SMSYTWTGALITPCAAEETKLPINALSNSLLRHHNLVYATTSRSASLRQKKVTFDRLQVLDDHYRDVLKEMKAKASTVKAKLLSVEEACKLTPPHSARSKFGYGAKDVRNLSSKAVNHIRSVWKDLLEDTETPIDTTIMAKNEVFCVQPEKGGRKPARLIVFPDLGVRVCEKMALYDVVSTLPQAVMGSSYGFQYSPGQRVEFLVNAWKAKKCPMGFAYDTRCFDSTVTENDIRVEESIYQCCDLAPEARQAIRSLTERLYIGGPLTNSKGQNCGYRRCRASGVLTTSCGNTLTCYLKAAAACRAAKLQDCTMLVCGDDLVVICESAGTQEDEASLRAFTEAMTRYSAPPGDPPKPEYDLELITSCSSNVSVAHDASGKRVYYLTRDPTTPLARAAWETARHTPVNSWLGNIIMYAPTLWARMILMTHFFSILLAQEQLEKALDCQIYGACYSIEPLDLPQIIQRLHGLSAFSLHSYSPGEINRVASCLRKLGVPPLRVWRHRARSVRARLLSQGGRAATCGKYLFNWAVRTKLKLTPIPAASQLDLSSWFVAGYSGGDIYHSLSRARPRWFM
Method: HCV NS5B RdRp cloning, expression, and purification. The cDNA encoding the NS5B protein of HCV, genotype 1b, was cloned into the pET21a expression vector. The protein was expressed with an 18 amino acid C-terminal truncation to enhance the solubility. The E. coli competent cell line BL21 (DE3) was used for expression of the protein. Cultures were grown at 37° C. for ˜4 hours until the cultures reached an optical density of 2.0 at 600 nm. The cultures were cooled to 20° C. and induced with 1 mM IPTG. Fresh ampicillin was added to a final concentration of 50 μg/ml and the cells were grown overnight at 20° C.
Cell pellets (3L) were lysed for purification to yield 15-24 mgs of purified NS5B. The lysis buffer consisted of 20 mM Tris-HCl, pH 7.4, 500 mM NaCl, 0.5% triton X-100, 1 mM DTT, 1 mM EDTA, 20% glycerol, 0.5 mg/ml lysozyme, 10 mM MgCl2, 15 ug/ml deoxyribonuclease I, and Complete TM protease inhibitor tablets (Roche). After addition of the lysis buffer, frozen cell pellets were resuspended using a tissue homogenizer. To reduce the viscosity of the sample, aliquots of the lysate were sonicated on ice using a microtip attached to a Branson sonicator. The sonicated lysate was centrifuged at 100,000×g for 1 hr at 4° C. and filtered through a 0.2 μm filter unit (Corning).
The protein was purified using three sequential chromatography steps: Heparin sepharose CL-6B, polyU sepharose 4B, and Hitrap SP sepharose (Pharmacia). The chromatography buffers were identical to the lysis buffer but contained no lysozyme, deoxyribonuclease I, MgCl2 or protease inhibitor and the NaCl concentration of the buffer was adjusted according to the requirements for charging the protein onto the column. Each column was eluted with a NaCl gradient which varied in length from 5-50 column volumes depending on the column type. After the final chromatography step, the resulting purity of the enzyme is >90% based on SDS-PAGE analysis. The enzyme was aliquoted and stored at −80° C.
Standard HCV NS5B RdRp enzyme assay. HCV RdRp genotype 1b assays were run in a final volume of 60 μl in 96 well plates (Costar 3912). The assay buffer is composed of 20 mM Hepes, pH 7.5, 2.5 mM KCl, 2.5 mM MgCl2, 1 mM DTT, 1.6 U RNAse inhibitor (Promega N2515), 0.1 mg/ml BSA (Promega R3961), and 2% glycerol. All compounds were serially diluted (3-fold) in DMSO and diluted further in water such that the final concentration of DMSO in the assay was 2%. HCV RdRp genotype 1b enzyme was used at a final concentration of 28 nM. A polyA template was used at 6 nM, and a biotinylated oligo-dT12 primer was used at 180 nM final concentration. Template was obtained commercially (Amersham 27-4110). Biotinylated primer was prepared by Sigma Genosys. 3H-UTP was used at 0.6 μCi (0.29 μM total UTP). Reactions were initiated by the addition of enzyme, incubated at 30° C. for 60 min, and stopped by adding […] of 50 mM EDTA containing SPA beads (4 μg/μl, Amersham RPNQ 0007). Plates were read on a Packard Top Count NXT after >1 hr incubation at room temperature.
Modified HCV NS5B RdRp enzyme assay. A modified enzyme assay was performed essentially as described for the standard enzyme assay except for the following: The biotinylated oligo dT12 primer was precaptured on streptavidin-coated SPA beads by mixing primer and beads in assay buffer and incubating at room temperature for one hour. Unbound primer was removed after centrifugation. The primer-bound beads were resuspended in 20 mM Hepes buffer, pH 7.5 and used in the assay at final concentrations of […] primer and 0.67 μg/μl beads. Order of addition in the assay: Enzyme (14 nM) was added to diluted compound followed by the addition of a mixture of template (0.2 nM), 3H-UTP (0.6 μCi, 0.29 μM), and primer-bound beads, to initiate the reaction; concentrations given are final. Reactions were allowed to proceed for 4 hours at 30° C.
IC50 values for compounds were determined using seven different [I]. […]

[1] = Table 1, FRET assay, read-out: EC50*

SMILES	EC50 (HCV replicon; [1]) [µM]	IC50 (HCV NS5B; Table 1, read-out: IC50*) [µM]	other results
O=C(O)C1=Cc2ccccc2-c2c(C3CCCCC3)c3ccc(C(=O)NS(=O)(=O)N4CCOCC4)cc3n2C1	> 10	0.01 to 1	–
COc1ccc(S(=O)(=O)NC(=O)c2ccc3c(C4CCCCC4)c4n(c3c2)CC(C(=O)N2CCOCC2)=Cc2ccccc2-4)cc1	0.07 to 1	0.01 to 1	–
O=C(NS(=O)(=O)N1CCOCC1)c1ccc2c(C3CCCCC3)c3n(c2c1)CC(C(=O)N1CCN(C(=O)CO)CC1)=Cc1ccccc1-3	0.07 to 1	0.01 to 1	–
COc1ccc2c(c1)C=C(C(=O)N1CCOCC1)Cn1c-2c(C2CCCCC2)c2ccc(C(=O)NS(=O)(=O)N3CCN(C)CC3)cc21	0.07 to 1	0.01 to 1	–
C[C@@H]1CN(C(=O)C2=Cc3ccccc3-c3c(C4CCCCC4)c4ccc(C(=O)NS(=O)(=O)N5CCN(C)CC5)cc4n3C2)C[C@H](C)O1	0.07 to 1	0.01 to 1	–
O=C(NCc1cnn[nH]1)c1ccc2c(C3CCCCC3)c3n(c2c1)CC(C(=O)N1CCOCC1)=Cc1ccccc1-3	0.07 to 1	0.01 to 1	–
C[C@@H]1CN(C(=O)C2=Cc3ccccc3-c3c(C4CCCCC4)c4ccc(C(=O)NCCN5CCOCC5)cc4n3C2)C[C@H](C)O1	1 to 10	0.01 to 1	–
C[C@@H]1CN(C(=O)C2=Cc3ccccc3-c3c(C4CCCCC4)c4ccc(C(=O)NCCN(C)C)cc4n3C2)C[C@H](C)O1	1 to 10	0.01 to 1	–
COC(=O)c1ccc2c(C3CCCCC3)c3n(c2c1)CC(C(=O)Nc1nccs1)=Cc1ccccc1-3	1 to 10	–	–
COC(=O)c1ccc2c(C3CCCCC3)c3n(c2c1)CC(C(=O)N1CCC(N2C(=O)Cc4ccccc42)CC1)=Cc1ccccc1-3	1 to 10	–	–
COC(=O)c1ccc2c(C3CCCCC3)c3n(c2c1)CC(C(=O)N1CCC(NC(C)=O)CC1)=Cc1ccccc1-3	1 to 10	–	–
O=C(O)c1ccc2c(C3CCCCC3)c3n(c2c1)CC(C(=O)N1CCC2(CC1)OCCO2)=Cc1ccccc1-3	–	–	EC50 (HCV replicon): 0.07 to 1 µM; IC50 (HCV NS5B; IC50*, Table 1): 0.01 to 1 µM
CN(C)S(=O)(=O)NC(=O)c1ccc2c(C3CCCCC3)c3n(c2c1)CC(C(=O)N1CCC2(CC1)OCCO2)=Cc1ccccc1-3	–	–	EC50 (HCV replicon): 0.07 to 1 µM; IC50 (HCV NS5B; IC50*, Table 1): 0.01 to 1 µM
COC(=O)c1ccc2c(C3CCCCC3)c3n(c2c1)CC(C(=O)N1CCC(N2CCOCC2)CC1)=Cc1ccc(Cl)cc1-3	1 to 10	–	–
CN(C)S(=O)(=O)NC(=O)c1ccc2c(C3CCCCC3)c3n(c2c1)CC(C(=O)N1CCC(=O)CC1)=Cc1ccccc1-3	–	–	EC50 (HCV replicon): 0.07 to 1 µM; IC50 (HCV NS5B; IC50*, Table 1): 0.01 to 1 µM
COC(=O)c1ccc2c(C3CCCCC3)c3n(c2c1)CC(C(=O)N1CC[C@@H](F)C1)=Cc1ccccc1-3	> 0.37	–	–
COC(=O)c1ccc2c(C3CCCCC3)c3n(c2c1)C/C(=N/O)Cc1ccccc1-3	> 10	–	–
C[C@@H]1CN(CCNC(=O)C2=Cc3ccccc3-c3c(C4CCCCC4)c4ccc(C(=O)NS(=O)(=O)N(C)C)cc4n3C2)C[C@H](C)O1 [drawing 148]	–	0.01 to 1	–
C[C@@H]1CN(C(=O)NC2Cc3ccccc3-c3c(C4CCCCC4)c4ccc(C(=O)O)cc4n3C2)C[C@H](C)O1 (stereo partly drawn) [drawing 151]	–	0.01 to 1	–
CN(C)S(=O)(=O)NC(=O)c1ccc2c(C3CCCCC3)c3n(c2c1)CC(NC(=O)N1CCOCC1)Cc1ccccc1-3 (stereo not drawn) [drawing 153]	–	0.01 to 1	–
CN(C)S(=O)(=O)NC(=O)c1ccc2c(C3CCCCC3)c3n(c2c1)CC(NC(=O)N1CCOCC1)Cc1ccccc1-3 (stereo not drawn) [drawing 155]	–	0.01 to 1	–
CC(=O)NN(C)C(=O)C1=Cc2ccccc2-c2c(C3CCCCC3)c3ccc(C(=O)O)cc3n2C1 [drawing 156]	–	0.01 to 1	–
O=C(NCc1cnn[nH]1)c1ccc2c(C3CCCCC3)c3n(c2c1)CC(C(=O)N1CCC(N2CCOCC2)CC1)=Cc1ccccc1-3 [drawing 204]	–	0.01 to 1	–
COc1ccc2c(c1)C[C@@H](C(=O)N1CCC[C@H](OC(C)=O)C1)Cn1c-2c(C2CCCCC2)c2ccc(C(=O)NS(=O)(=O)N(C)C)cc21 [drawing 320]	–	–	IC50 (HCV NS5B; Table 1a, read-out: IC50*): 0.01 to 1 µM
COc1ccc2c(c1)C[C@@H](C(=O)N1CCC[C@H](OC(C)=O)C1)Cn1c-2c(C2CCCCC2)c2ccc(C(=O)NS(=O)(=O)N(C)C)cc21 [drawing 326]	–	–	IC50 (HCV NS5B; Table 1a, read-out: IC50*): 0.01 to 1 µM
